Data on two molecules can be found in patent US12459951B2, “Compounds that interact with RAS superfamily proteins for treatment of cancers, inflammatory diseases, rasopathies, and fibrotic disease” (SHY Therapeutics, LLC, priority 2022, dated 2025).

A value given as a limit tells only on which side of the number the result lay.

In one data set the test system is active/cleaved caspase 9. Description: Cell-based caspase activation assay (western blot). Further details: species or system human.
Data set [1] relates to BxPC3 (expressing wild type K-Ras). As to the kind of experiment: Proliferation Assay (Cell Viability Assay). Conditions: Homo sapiens, BXPC-3; BxPC3, pancreatic, KRas WT. The class given is cell-based. The procedure: (§1) Cell lines: these Human tumor-derived cell lines were purchased from American Type Culture Collection. Human tumor-derived pancreatic cancer cell line MiaPaca-2 (expressing KRAS G12C mutant) and Panc-1 (expressing KRas G12D mutant), and Human non-small cell lung cancer (NSCLC) cell line A549 (expressing KRas G12S mutant), and Human melanoma cell line A375 (wild type Kras) were grown in complete DMEM-High Glucose medium. Human tumor-derived pancreatic cancer cell lines SU86.86 (expressing KRas G12D mutant), BxPC3 (expressing wild type K-Ras), and Human non-small cell lung cancer (NSCLC) cell lines NCI-H441 (expressing KRas G12S mutant), NCI-H1975 (expressing wild type KRas), NCI-H358 (expressing KRas G12C mutant), NCI-H1299 (expressing NRas Q61H mutant), and Human colon cancer cell line SW-620 (expressing KRas G12V mutant), Human triple negative breast cancer cell line HCC-1806 (expressing wild type KRas), and Human tumor-derived multiple myeloma cell line MM.1R (expressing wild type KRAS), were grown in RPMI 1640 medium. Human tumor-derived breast cancer cell line BT-549 (expressing wild type KRAS) was grown in RPMI 1640 medium in the presence of 11.8U insulin. Human tumor-derived pancreatic cancer cell line HPAF-II (expressing KRas G12D mutant), Human triple negative breast cancer cell line BT-20 (expressing wild type KRas), and Human colon cancer cell line LS123 (expressing KRas G12S mutant), were grown in EMEM medium. Human tumor-derived pancreatic cancer cell line CF-PAC1 (expressing KRas G12V mutant) was frown in IMDM medium, and Human colon cancer cell line HT29 (expressing wild type KRas) was grown in McCoy's 5A medium. The colon cancer cell line GP2d (expressing KRas G12D mutant) was purchased from MilliporeSigma and grown in DMEM-High Glucose medium. All cell lines were supplemented with penicillin (100 U/mL), streptomycin (100 μg/mL), and 10% heat-inactivated FBS at 37° C. in a humidified incubator with 5% CO2.
(§2) Method: Cells were plated at 2000 to 5000 cells/well density in 96-wells plate and cultured overnight. Small molecules that were tested were added to the cells in the final concentration of 10 μM in the presence of 0.3% DMSO and 10% FBS, and incubated for 2-4 days at 37° C. in a humidified incubator with 5% CO2. For IC50 value determination, serial dilutions of compounds were added to cells under the same conditions.
(§3) Assay: At the end of the incubation period, cell viability was determined using the CellTiter 96® Aqueous One Solution Cell Proliferation Assay according to manufacturer specifications (Promega, Madison, WI). The percentage of small molecules inhibition of cellular proliferation was calculated from raw data.

Data set [2] relates to LS123 (expressing KRas G12S mutant). As to the kind of experiment: Proliferation Assay (Cell Viability Assay). The format is cell-based. Conditions: Homo sapiens, LS-123, colon. How it is done:
as §1, §2, §3

Data set [3] relates to NCI-H1975 (expressing wild type KRas). As to the kind of experiment: Proliferation Assay (Cell Viability Assay). The conditions noted are these: Homo sapiens; NCI-H1975, NSCLC, KRas WT. The format is cell-based. How it is done:
as §1, §2, §3

The subject of data set [4] is A549 (expressing KRas G12S mutant). Description: Proliferation Assay (Cell Viability Assay). Conditions: Homo sapiens, A549, NSCLC. The class given is cell-based. The procedure: (§4) Cell lines: Human tumor-derived cell lines were purchased from American Type Culture Collection. Human tumor-derived pancreatic cancer cell line MiaPaca-2 (expressing KRAS G12C mutant) and Panc-1 (expressing KRas G12D mutant), and Human non-small cell lung cancer (NSCLC) cell line A549 (expressing KRas G12S mutant) were grown in complete DMEM-High Glucose medium. Human colon cancer cell line SW-620 (expressing KRas G12V mutant) was grown in RPMI 1640 medium. All cell lines were supplemented with penicillin (100 U/mL), streptomycin (100 μg/mL), and 10% heat-inactivated FBS at 37° C. in a humidified incubator with 5% CO2.
(§5) Method: Cells were plated at 2000 to 5000 cells/well density in 96-wells plate and cultured overnight. Small molecules to be tested were added to the cells in the final concentration of 10 μM in the presence of 0.3% DMSO and 10% FBS and incubated for 2-4 days at 37° C. in a humidified incubator with 5% CO2. For IC50 value determination, serial dilutions of compounds were added to cells under the same conditions.
as §3, §1, §2

In data set [5] the test system is Panc-1 (expressing KRas G12D mutant). As to the kind of experiment: Proliferation Assay (Cell Viability Assay). The format is cell-based. Conditions: Homo sapiens, Panc1, pancreatic. How it is done: as §4, §5, §3, §1, §2
Data set [6] relates to SW-620 (expressing KRas G12V mutant). As to the kind of experiment: Proliferation Assay (Cell Viability Assay). Conditions: Homo sapiens, SW-620, colon. The class given is cell-based. The procedure: as §4, §5, §3, §1, §2
For data set [7], the system named is NCI-H358 (expressing KRas G12C mutant) tumors. As to the kind of experiment: In vivo efficacy in NCI-H358 (G12C) model. The conditions noted are these: daily dose 50 mg/kg. Also on record: species or system Athymic Nude-Foxn1 nu mice. How it is done: Biological Example 8: In Vivo Efficacy of Compound 6 in NCI-H358 (G12C) Model
Cell lines: Human tumor-derived non-small cell lung cancer cell lines NCI-H358 (expressing KRas G12C mutant was grown in RPMI-1640 Medium, ATCC 30-2001, supplemented with 10% fetal bovine serum (FBS) and Penicillin/Streptomycin 100U/ml (Lonza BioWhittaker, Morrisville, NC). Cells were trypsinized, washed in sterile PBS, counted, and resuspended in a 1:1 mix PBS/HC Matrigel (Corning, Glendale, AZ) at a concentration of 25×10^6/ml. Cells were kept on ice until injection.
The right flank of Athymic Nude-Foxn1 nu mice (The Jackson Laboratory, Harbor, ME) was injected subcutaneously with 5×10^6 cells in 200 μl of sterile PBS/Matrigel solution. Tumor mass was first measured 4 days after injection and mice were randomized on the basis of these measurements. Treatment was begun when tumors reached 150-200 mm^3, ^˜5-8 days after injection. Compound 6 was formulated in 20% captisol (50 mM citrate buffer, PH 5.0), and mice received either daily dose of vehicle or 50 mg/kg body weight of the formulated compound 6. Tumors were measured using digital calipers and volume (v) was calculated using the formula V=(W(2)×L)/2 where V is tumor volume, W is tumor width, and L is tumor length. Mice were housed in accordance with IACUC guidelines. The calculated Tumor Growth Inhibition (TGI) was 80%.

Consider `Cc1c(-c2ccn(C)n2)cn2nc(-c3nccn3C)nc(Nc3cc4n(n3)CCO4)c12` [Compound 124, N-(5-Methyl-2-(1-methyl-1H-imidazol-2-yl)-6-(1-methyl-1H-pyrazol-3-yl)pyrrolo[2,1-f][1,2,4]triazin-4-yl)-2,3-dihydropyrazolo[5,1-b]oxazol-6-amine], for which the “Caspase 9 activation” value with active/cleaved caspase 9 (HCC1806, after 48 hours) is listed as “yes”; in the data set with active/cleaved caspase 9 (NCI-H358, after 48 hours), “yes”.
As for `COc1cc(Nc2nc(-c3nccn3C)nn3cc(-c4ccn(C(C)C)n4)c(C)c23)ncn1` [Compound 6, 6-(1-Isopropyl-1H-pyrazol-3-yl)-N-(6-methoxypyrimidin-4-yl)-5-methyl-2-(1-methyl-1H-imidazol-2-yl)pyrrolo[2,1-f][1,2,4]triazin-4-amine], the IC50 in data set [1] was below 0.15 µM; in data set [2], below 0.15 µM; in data set [3] it was 0.51 to 1 µM; in data set [4], 0.51 to 1 µM; in data set [5] it was below 0.15 µM; in data set [6], 0.15 to 0.5 µM. The “Tumor Growth Inhibition (TGI)” value in data set [7] (NCI-H358 subcutaneous tumors in nude mice, 20% captisol formulation) amounted to 80%. Besides, the Weight loss result in data set [7] (NCI-H358 tumor-bearing nude mice) is listed as “No weight loss was detected”.
